Data reported in US20090105206A1, “Copper Melphalan And Copper Tegafur As Anti-Tumor Agents” (priority 2004, published 2009).
Where “and” joins values, the source holds several entries; their conditions need not be identical. Equal entries are not always repeated.

Columns and labels:
[1] = system: murine renal cell carcinoma (RENCA) tumor cells applied orthotopically; experiment: Example 4: orthotopic renal cell carcinoma model (RENCA), treatment Day 1-7; primary tumor, metastases, vessel density (anti-CD31); type: in vivo, Balb/c mouse; details: for Kidney weight / Lung weight / Number of intestinal lymph node metastases / Number of lung metastases: day 19; for Kidney weight / Lung weight / Number of intestinal lymph node metastases / Number of lung metastases / Kidney volume: individual animals; for Kidney volume: test ended day 19
Method: The tests were carried out on a murine renal cell carcinoma model (RENCA) of the Balb/c mouse. The tumor cells were applied orthotopically into the left-hand renal capsule of syngenic mice. The effect of the treatment carried out on a primary tumor (in the implanted kidney), metastases (predominantly in the lungs, spleen and intestinal lymph nodes) and vessel density were investigated.
After anesthesia by means of isoflurane narcosis (O2— flow approx. 2.0 l with 0.5-1.5% isoflurane) a small incision was made in the mouse's left flank. The kidney was prepared and presented free from the peritoneum. A 27 G needle was introduced via the lower kidney pole through to below the renal capsule with visual inspection, and […] in 70 μl aliquots respectively applied once. The occurrence of a visible liquid-filled blister between kidney parenchyma and renal capsule and the discoloration of the kidneys were regarded as criteria for successful application. The kidney was subsequently reset and the incision into the abdominal wall closed by means of fascia stitches and cutaneous stitches with absorbable stitching material. Five test groups with ten animals respectively were formed. Group 1 negative control, group 2 positive control melphalan (Glaxo), group 3 and 4 MOC melphalan 2.5 mg/kg and 5 mg/kg. In the case of group 5 an antiangiogenically effective substance was applied as the positive control. The start of treatment was fixed for day 1 post op. for Cu(melphalan)2. Treatment was carried out daily up to day seven (see treatment model). The test was ended after 19 days since, owing to their size, the control tumors required termination for ethical reasons.
• The implantation day was counted as day 0. • Duration of the test 19 days. • Number of animals at beginning of test 50, no animals died during the op.
After selecting the animals the tissues to be examined were quickly transferred into liquid nitrogen and then frozen at −80° C. 5-10 μm thick sections were prepared from the tissue parts. The preparations were immunohistochemically dyed with an anti-CD31 antibody (Pecam-1) and the number of vessels in the control and treatment groups counted. Two sections of each tumor with three areas respectively were used for counting the vessels.

[2] = Cu(melphalan)2 4.4 μmol/kg (2.5 mg/kg) i.p. Day 1-7
[3] = Cu(melphalan)2 8.8 μmol/kg (5 mg/kg/d) i.p. Day 1-7
[4] = dose of 2.5 mg/kg and 5 mg/kg, Day 1-7 i.p.

N[C@@H](Cc1ccc(N(CCCl)CCCl)cc1)C(=O)[O-].N[C@@H](Cc1ccc(N(CCCl)CCCl)cc1)C(=O)[O-].O.O.[Cu+2] [Cu(melphalan)2]
chemical stability (blue solid): chemically stable
effectiveness compared with melphalan (investigations of kidney cell carcinoma and lung metastases formation): much more effective than melphalan
Kidney weight [1, 2]: 0.78 gr and 2.00 gr and 0.81 gr and 0.38 gr and 1.58 gr and 1.02 gr and 1.28 gr and 1.06 gr and 1.15 gr and 0.29 gr
Lung weight [1, 2]: 0.20 gr and 0.31 gr and 0.49 gr and 1.07 gr and 0.11 gr (2×) and 0.14 gr and 0.24 gr and 0.13 gr (2×)
Number of intestinal lymph node metastases [1, 2]: 1 and 2 and 3 and 4 and 0 (5×) and 6
Number of lung metastases [1, 2]: 378 and >750 (4×) and 9 and 49 and 29 and 3 and 570
Kidney volume [1, 2]: 1.54 cm^3 and 2.2 cm^3 and 1.2 cm^3 and 0.96 cm^3 and 2.13 cm^3 and 1.53 cm^3 and 1.71 cm^3 (2×) and 1.80 cm^3 and 0.60 cm^3
Kidney weight [1, 3]: 0.79 gr (2×) and 0.19 gr and 1.06 gr and 0.59 gr and 0.85 gr and 0.74 gr and 0.18 gr and 0.29 gr and 0.36 gr
Lung weight [1, 3]: 0.14 gr (2×) and 0.16 gr and 0.15 gr and 0.11 gr and 0.21 gr and 0.31 gr and 0.22 gr and 0.18 gr and 0.13 gr
Number of intestinal lymph node metastases [1, 3]: 0 (8×) and 4 and 2
Number of lung metastases [1, 3]: 11 and 4 (2×) and 162 and 0 and 680 and 16 and 610 and 92 and 7
Kidney volume [1, 3]: 1.24 cm^3 and 0.44 cm^3 and 1.5 cm^3 and 1.2 cm^3 and 1.33 cm^3 and 1.30 cm^3 and 1.12 cm^3 and 0.6 cm^3 and 0.64 cm^3 and 1.26 cm^3
effectiveness compared with melphalan ([1]; approximately quarter-equimolar dose (2.5 mg/kg, 4.4 μmol/kg vs 16.4 μmol/kg melphalan)): Effectiveness comparable with melphalan
effectiveness compared with melphalan alone ([1]; approximately semi-equimolar dose (5 mg/kg, 8.8 μmol/kg vs 16.4 μmol/kg melphalan)): better effectiveness than melphalan alone
anti-metastatic effect, intestinal lymph node metastases [1, 4]: significant anti-metastatic effect
anti-tumor effect (primary tumor) [1, 4]: significant anti-tumor effect
anti-metastatic effect, lung metastases ([1]; dose of 5 mg/kg, Day 1-7 i.p.): significant anti-metastatic effect
